# Like-named read-outs stand apart in the source and are kept apart here.
# What was measured:
# HDAC11 = target: T1, HDAC11 (Homo sapiens, UniProt Q96DB2); assay: HDAC biochemical activity measurement (fluorescent substrate deacetylation);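 note: HDAC11 enzyme acting on an acetyl-lysine fluorogenic substrate, then a developer frees the fluorophore, read at excitation 360 nm and emission 460 nm, IC50 over a compound dilution series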
# T1 sequence (Q96DB2 1-347): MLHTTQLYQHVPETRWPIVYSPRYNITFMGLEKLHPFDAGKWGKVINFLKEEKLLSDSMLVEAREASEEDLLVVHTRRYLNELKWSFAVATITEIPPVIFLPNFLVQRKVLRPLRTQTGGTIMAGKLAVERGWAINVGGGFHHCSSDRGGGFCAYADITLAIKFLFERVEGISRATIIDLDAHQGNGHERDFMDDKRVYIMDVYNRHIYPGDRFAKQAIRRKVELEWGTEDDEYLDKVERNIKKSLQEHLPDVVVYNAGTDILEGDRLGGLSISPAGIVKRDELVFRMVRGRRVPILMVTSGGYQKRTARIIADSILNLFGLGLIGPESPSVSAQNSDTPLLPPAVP
# HDAC7 = target: T2, HDAC7 (Homo sapiens, UniProt Q8WUI4); assay: as above; details: HDAC7; 37° C. 30 minutes;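 note: fluorogenic deacetylation assay using acetyl-lysine substrate at 20 µM, enzyme and compound incubated 30 min at 37 °C, then developer added, fluorescence read at 360/460 nm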
# T2 sequence (Q8WUI4 1-952): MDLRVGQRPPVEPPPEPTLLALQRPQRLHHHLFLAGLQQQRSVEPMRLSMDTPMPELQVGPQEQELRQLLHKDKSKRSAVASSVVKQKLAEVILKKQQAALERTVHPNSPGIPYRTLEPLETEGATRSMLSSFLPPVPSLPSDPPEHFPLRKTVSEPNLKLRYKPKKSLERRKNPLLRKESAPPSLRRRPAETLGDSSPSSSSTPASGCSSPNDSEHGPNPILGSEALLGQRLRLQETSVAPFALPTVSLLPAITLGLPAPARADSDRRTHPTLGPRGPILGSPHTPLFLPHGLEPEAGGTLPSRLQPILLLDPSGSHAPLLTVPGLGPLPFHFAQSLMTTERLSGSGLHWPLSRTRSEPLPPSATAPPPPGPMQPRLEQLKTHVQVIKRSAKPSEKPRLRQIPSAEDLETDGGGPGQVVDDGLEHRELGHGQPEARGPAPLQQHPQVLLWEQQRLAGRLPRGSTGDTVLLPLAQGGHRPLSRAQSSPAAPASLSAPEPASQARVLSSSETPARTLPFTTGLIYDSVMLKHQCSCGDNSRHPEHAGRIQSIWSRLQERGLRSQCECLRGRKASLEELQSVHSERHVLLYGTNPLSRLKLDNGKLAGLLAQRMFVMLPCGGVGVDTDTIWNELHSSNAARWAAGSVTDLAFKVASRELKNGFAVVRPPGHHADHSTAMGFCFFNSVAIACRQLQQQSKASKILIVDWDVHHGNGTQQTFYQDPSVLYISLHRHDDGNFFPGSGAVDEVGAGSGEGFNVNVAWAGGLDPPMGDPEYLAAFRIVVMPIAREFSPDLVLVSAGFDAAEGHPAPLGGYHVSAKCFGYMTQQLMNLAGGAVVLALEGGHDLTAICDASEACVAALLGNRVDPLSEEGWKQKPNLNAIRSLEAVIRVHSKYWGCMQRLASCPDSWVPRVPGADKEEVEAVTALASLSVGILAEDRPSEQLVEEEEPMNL
# [1] = test system: Bel-7402 (human hepatoma cells); assay: MTT cancer cell growth inhibition; assay type: cell-based; details: MTT, 72 hours incubation, Bel-7402 cells, read-out: GI50 Bel-7402
# How it was run: (§1)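 MTT viability, 570 nm, GI50. Cells 1500/well; compound 72 h at final 10^−5–10^−10 M in triplicate.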
# [2] = test system: N-87 (human gastric cancer cells); assay: MTT cancer cell growth inhibition; assay type: cell-based; details: MTT, 72 hours incubation, N-87 cells, read-out: GI50 N-87
# How it was run: as §1
# [3] = test system: K562 (human leukemia cells); assay: MTT cancer cell growth inhibition; assay type: cell-based; details: MTT, 72 hours incubation, K562 cells, read-out: GI50 K562
# How it was run: as §1
# [4] = test system: HT1080 (human fibrosarcoma cells); assay: MTT cancer cell growth inhibition; assay type: cell-based; details: MTT
# How it was run: as §1
# [5] = test system: HCC827 (human non-small cell lung cancer cells); assay: MTT cancer cell growth inhibition; assay type: cell-based; details: MTT, 72 hours incubation, HCC827 cells, read-out: GI50 HCC827
# How it was run: as §1
# HDAC3 = HDAC3 (Homo sapiens, UniProt O15379); assay: HDAC biochemical activity measurement (fluorescent substrate deacetylation);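 note: fluorogenic acetyl-lysine substrate (20 µM) deacetylated by HDAC3, then developer added for 15 min at room temperature, release of fluorophore read at excitation 360 nm, emission 460 nm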
# HDAC1 = HDAC1 (Homo sapiens, UniProt Q13547); assay: as above
# HDAC8 = target: T3, HDAC8 (Homo sapiens, UniProt Q9BY41); assay: as above; details: 37° C. 30 minutes
# T3 sequence (Q9BY41 1-377): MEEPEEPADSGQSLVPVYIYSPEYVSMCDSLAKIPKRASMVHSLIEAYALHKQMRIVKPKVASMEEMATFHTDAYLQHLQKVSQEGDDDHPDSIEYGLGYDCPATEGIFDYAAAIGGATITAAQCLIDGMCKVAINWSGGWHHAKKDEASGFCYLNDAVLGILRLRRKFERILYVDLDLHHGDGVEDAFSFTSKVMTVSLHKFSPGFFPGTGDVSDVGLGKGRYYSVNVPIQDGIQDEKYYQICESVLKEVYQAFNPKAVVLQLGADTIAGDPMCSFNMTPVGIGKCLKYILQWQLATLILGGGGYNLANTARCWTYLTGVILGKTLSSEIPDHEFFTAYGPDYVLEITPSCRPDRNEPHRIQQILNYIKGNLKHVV
# Method: (§2) The chemical activity of the compound is determined according to the degree of deacetylation inhibition of the HDAC enzyme. This experiment measured the degree of deacetylation related to tumor proliferation and metastasis of HDAC1, HDAC2, HDAC3, HDAC8, HDAC11 five subtypes HDAC enzymes. After the substrate containing an acetylated lysine side chain and HDAC enzyme are labeled with a fluorescent label, the fluorescent substrate is de acetyl. The fluorescent labeled substrate is cleaved by the enzyme, and the fluorescent substance is released, which generates 460 nm emission light under the excitation of 360 nm light.
# (§3) HDAC substrate was diluted with reaction buffer to 200M (reaction concentration of 20M), the HDAC enzyme was diluted to the appropriate concentration, then added different concentrations of the test compounds and acted at 37° C. 30 minutes, and then added the same volume of 2-times concentration substrate developing solution (developer), incubated at room temperature for 15 minutes.
# HDAC2 = HDAC2 (Homo sapiens, UniProt Q92769); assay: as above; details: 37° C. 30 minutes;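 note: HDAC2 enzyme with an acetyl-lysine fluorescent substrate, then developer added, fluorescence read at excitation 360 nm and emission 460 nm, inhibition measured across several compound concentrations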
# Method: as §2, §3
# [6] = read-out: IC50 HDAC11, HDAC11, 37° C. 30 minutes
# [7] = Homo sapiens, HT-1080, 72 h, HT1080 cells, 72 hours incubation, read-out: GI50 HT1
# [8] = read-out: IC50 HDAC3, HDAC3, 37° C. 30 minutes
# [9] = HDAC1, 37° C. 30 minutes, read-out: IC50 HDAC1
# [10] = Homo sapiens, HT-1080, 72 h, 72 hours incubation, read-out: GI50 HT1
# [11] = Table 3, read-out: IC50 HDAC1, D (non-substituent)
# 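Throughout, for IC50 HDAC1, C (six-membered ring with substituents): fluorogenic acetyl-lysine substrate (20 µM) deacetylated by HDAC1, then developer releases fluorophore read at 360 nm excitation and 460 nm emission, inhibitor incubated 30 min at 37 °C.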
# 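Throughout, for IC50 HDAC1, D (non-substituent): fluorogenic acetyl-lysine substrate (20 µM) deacetylated by HDAC1, then developer releases fluorophore read at 360 nm excitation and 460 nm emission, inhibitor incubated 30 min at 37 °C.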
# 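Throughout, for IC50 HDAC1, a (compounds of the present invention): fluorogenic acetyl-lysine substrate (20 µM) deacetylated by HDAC1, then developer releases fluorophore read at 360 nm excitation and 460 nm emission, inhibitor incubated 30 min at 37 °C.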
# 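Throughout, for IC50 HDAC1: fluorogenic acetyl-lysine substrate (20 µM) deacetylated by HDAC1, then developer releases fluorophore read at 360 nm excitation and 460 nm emission, inhibitor incubated 30 min at 37 °C.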
# Sequence of HDAC1 (Q13547 whole entry, species assumed): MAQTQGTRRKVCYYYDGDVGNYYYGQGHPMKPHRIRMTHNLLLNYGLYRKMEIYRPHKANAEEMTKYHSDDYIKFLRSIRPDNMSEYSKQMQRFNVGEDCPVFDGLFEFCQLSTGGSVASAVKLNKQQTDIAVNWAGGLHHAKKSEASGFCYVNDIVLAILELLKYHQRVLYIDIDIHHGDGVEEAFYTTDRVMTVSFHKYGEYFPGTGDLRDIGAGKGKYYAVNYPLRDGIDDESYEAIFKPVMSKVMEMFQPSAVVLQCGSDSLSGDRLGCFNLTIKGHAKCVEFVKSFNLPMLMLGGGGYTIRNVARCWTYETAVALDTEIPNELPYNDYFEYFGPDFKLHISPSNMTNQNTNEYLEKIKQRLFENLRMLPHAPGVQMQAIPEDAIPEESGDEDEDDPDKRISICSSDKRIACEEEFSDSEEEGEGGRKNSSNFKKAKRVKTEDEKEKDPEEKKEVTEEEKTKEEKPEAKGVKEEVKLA
# Sequence of HDAC2 (Q92769 whole entry, species assumed): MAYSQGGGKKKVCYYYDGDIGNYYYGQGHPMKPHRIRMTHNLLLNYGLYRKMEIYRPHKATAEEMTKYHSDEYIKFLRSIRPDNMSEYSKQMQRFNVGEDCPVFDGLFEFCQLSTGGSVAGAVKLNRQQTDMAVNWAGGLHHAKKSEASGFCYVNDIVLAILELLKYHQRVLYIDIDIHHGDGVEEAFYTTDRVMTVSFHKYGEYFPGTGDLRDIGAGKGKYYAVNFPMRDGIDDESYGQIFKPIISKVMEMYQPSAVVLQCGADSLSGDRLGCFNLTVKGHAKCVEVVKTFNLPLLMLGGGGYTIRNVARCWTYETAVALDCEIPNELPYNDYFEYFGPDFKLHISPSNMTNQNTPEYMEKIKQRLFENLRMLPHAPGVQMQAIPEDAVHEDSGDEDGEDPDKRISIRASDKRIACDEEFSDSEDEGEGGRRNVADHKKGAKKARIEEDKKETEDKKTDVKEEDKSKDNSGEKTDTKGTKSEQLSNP
# Sequence of HDAC3 (O15379 whole entry, species assumed): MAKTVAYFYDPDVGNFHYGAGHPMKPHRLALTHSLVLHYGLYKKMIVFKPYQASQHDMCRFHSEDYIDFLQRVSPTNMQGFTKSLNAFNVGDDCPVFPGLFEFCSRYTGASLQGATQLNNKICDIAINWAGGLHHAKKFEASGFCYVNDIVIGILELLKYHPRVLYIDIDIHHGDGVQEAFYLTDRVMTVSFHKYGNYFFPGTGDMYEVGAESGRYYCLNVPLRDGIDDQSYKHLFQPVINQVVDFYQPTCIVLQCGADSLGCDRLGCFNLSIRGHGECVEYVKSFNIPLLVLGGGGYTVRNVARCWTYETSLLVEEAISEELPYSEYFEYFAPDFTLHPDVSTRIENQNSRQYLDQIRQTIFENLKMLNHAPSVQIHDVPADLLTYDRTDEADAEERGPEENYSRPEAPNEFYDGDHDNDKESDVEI
# Sequence of HDAC3 (Q9Y618 395-489 partner limits assumed, species assumed): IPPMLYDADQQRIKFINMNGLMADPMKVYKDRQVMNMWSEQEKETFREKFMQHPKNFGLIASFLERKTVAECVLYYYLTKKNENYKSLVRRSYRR
IC50 (HDAC11; [6]) [nM],IC50 HDAC7 (HDAC7),"GI50 ([1]; Homo sapiens, Bel-7402, 72 h) [nM]","GI50 ([2]; Homo sapiens, 72 h) [nM]","GI50 ([3]; Homo sapiens, K562, 72 h) [nM]","GI50 [4, 7] [nM]","GI50 ([5]; Homo sapiens, HCC827, 72 h) [nM]",IC50 (HDAC3; [8]) [nM],IC50 (HDAC1; [9]) [nM],IC50 (HDAC8) [nM],IC50 (HDAC2) [nM],"GI50 [4, 10] [nM]",IC50 (HDAC11) [nM],IC50 (HDAC3) [nM],SMILES,further results
37,no activity,29,83,53,760,28,32,92,89,53,–,–,–,C=C1NC(=O)c2cccc(n2)CNC(=O)C[C@@H](/C=C/CCSC(=O)CCCCCCC)OC(=O)[C@H](C(C)C)NC1=O [Compound 244],"GI50 ([4]; Homo sapiens, HT-1080, 72 h, 72 hours, present invention, read-out: GI50 HT1080, a): 760 nM; IC50 (HDAC1; Table 2, read-out: IC50 HDAC1, a (compounds of the present invention)): < 100 nM"
87,no activity,86,62,24,–,52,45,183,65,77,980,–,–,CC(=O)SCC/C=C/[C@@H]1CC(=O)NCc2cccc(n2)C(=O)NC(=C(C)C)C(=O)N[C@@H](C(C)C)C(=O)O1 [Compound 20],IC50 (HDAC1; [11]): 183 nM
–,no activity,44,94,34,130,35,–,91,13,41,–,99,34,C/C=C1\NC(=O)c2nc(ccc2SC)CNC(=O)C[C@@H](/C=C/CCSC=O)OC(=O)[C@H](C(C)C)NC1=O [Compound 168],–
89,no activity,–,–,–,–,–,62,61,61,19,–,–,–,C/C=C1\NC(=O)c2nc(F)cc(n2)CNC(=O)C[C@@H](/C=C/CCSC(C)=O)OC(=O)[C@H](C(C)C)NC1=O [Compound 98],"GI50 [1]: 43 nM; GI50 [2]: 21 nM; GI50 [3]: 37 nM; GI50 ([4]; 72 hours incubation, read-out: GI50 HT1): 80 nM; GI50 [5]: 35 nM"
–,no activity,35,45,42,20,38,–,66,59,93,–,152,21,C/C=C1\NC(=O)c2nc(ccc2SC)CNC(=O)C[C@@H](/C=C/CCS)OC(=O)[C@H](C)NC1=O [Compound 232],–
94,no activity,34,61,37,–,34,31,41,26,16,30,–,–,C/C=C1\NC(=O)c2nc(ccc2C)CNC(=O)C[C@@H](/C=C/CCSC(C)=O)OC(=O)[C@H](Cc2ccccc2)NC1=O [Compound 66],"IC50 (HDAC1; Table 3, column C, read-out: IC50 HDAC1, C (six-membered ring with substituents)): 41 nM"
–,no activity,94,59,53,–,94,–,41,29,58,90,91,39,C/C=C1\NC(=O)c2nc(ccc2F)CNC(=O)C[C@@H](/C=C/CCSC(C)=O)OC(=O)[C@H](C)NC1=O [Example 63],–
–,no activity,57,63,27,–,57,–,81,53,37,50,88,16,C/C=C1\NC(=O)c2nc(ccc2F)CNC(=O)C[C@@H](/C=C/CCSC(=O)CCCCCCC)OC(=O)[C@H](C)NC1=O [Example 60],–
91,no activity,72,28,24,–,37,52,81,38,54,60,–,–,C/C=C1\NC(=O)c2cccc(n2)CNC(=O)C[C@@H](/C=C/CCSC(C)=O)OC(=O)[C@H](C)NC1=O [Compound 12],IC50 (HDAC1; [11]): 81 nM
–,no activity,46,55,37,60,29,–,72,15,52,–,92,16,C/C=C1\NC(=O)c2cc(SC)cc(n2)CNC(=O)C[C@@H](/C=C/CCSC=O)OC(=O)[C@H](C(C)C)NC1=O [Compound 169],–
107,no activity,95,44,35,–,59,67,187,73,55,10800,–,–,C/C=C1\NC(=O)c2cccc(n2)CNC(=O)C[C@@H](/C=C/CCSC(C)=O)OC(=O)[C@H](Cc2ccc(O)cc2)NC1=O [Compound 18],IC50 (HDAC1; [11]): 187 nM
–,no activity,84,37,–,–,84,–,42,28,35,80,91,28,C/C=C1\NC(=O)c2cc(F)cc(n2)CNC(=O)C[C@@H](/C=C/CCSC(C)=O)OC(=O)[C@H](C(C)C)NC1=O [Compound 94],GI50 [3]: 39 nM

# Reference: patent US10065990B2, “Cyclic peptide compound, and preparation method, pharmaceutical composition and use thereof” (HANGZHOU GUANYU BIO-MEDICAL CO., LTD, priority 2013, dated 2018)
